Source: patent US9624167B2, “N-(4-hydroxy-4-methyl-cyclohexyl)-4-phenyl-benzenesulfonamides and N-(4-hydroxy-4-methyl-cyclohexyl)-4-(2-pyridyl)benzenesulfonamides and their therapeutic use” (PIMCO 2664 LIMITED, priority 2013, dated 2017)
Like-named read-outs stand apart in the source and are kept apart here.

Assays:
[1] = tested on: CD4+ T-lymphocytes; assay: Human primary leucocyte viability: CD4+ T-lymphocytes; assay type: cell-based; conditions: 3 μM, 48 hours
Description: (§1) The effects of the reference compound (ABD735) on the viability of neutrophils, monocytes, CD4+ and CD8+ T-cells and B-lymphocytes was assessed under both resting and stimulated conditions. Resting conditions were used to assess likely effects on normal cells found in human blood, and stimulated conditions were used to assess the effects of the compound under disease conditions.
(§2) Effects on cell viability were assessed using flow cytometry. Flow cytometry is a laser-based, biophysical technology employed in cell counting, cell sorting, and biomarker detection, by suspending cells in a stream of fluid and passing them by an electronic detection apparatus. It allows simultaneous multi-parametric analysis of the physical and chemical characteristics of up to thousands of particles per second. The sorting of cells using flow cytometry requires the use of specific cell markers. To quantify cell numbers, counting beads are used as an internal standard. […] In addition, for B- and T-lymphocytes, cell proliferation was measured using a dye known as Cell Proliferation Dye (eFluor® 450). eFluor® 450 is an organic dye which can be conjugated to cell-specific markers. […]
(§3) The average results (n=3) for the reference compound (ABD735) were expressed as a fold change versus the average control value. […]

[2] = tested on: B-lymphocytes; assay: Human primary leucocyte proliferation: B-lymphocytes; assay type: cell-based; conditions: 3 μM
Description: as §2, with “standard. Counting beads are a calibrated suspension of microbeads which are added to a known volume of sample so the sample volume per bead is known.” for “standard.”
PBMCs (peripheral blood mononuclear cells) were collected from healthy donors (all female) and isolated by centrifugation on a layer of Ficoll Paque (GE Healthcare, UK). […] Following incubation, the cells were stained with anti-human CD19, a marker of B-lymphocytes, before being analysed on a flow cytometer. […]
as §3

[3] = tested on: CD8+ T-lymphocytes; assay: Human primary leucocyte viability: CD8+ T-lymphocytes; assay type: cell-based; conditions: 3 μM, 48 hours
Description: as §1, §2, §3

[4] = tested on: CD8+ T-lymphocytes; assay: Human primary leucocyte proliferation: CD8+ T-lymphocytes; assay type: cell-based; conditions: 3 μM, 5 days
Description: as §2, with “standard. Counting beads are a calibrated suspension of microbeads which are added to a known volume of sample so the sample volume per bead is known.” for “standard.”
(§4) PBMCs (peripheral blood mononuclear cells) were collected from healthy donors (all female) and isolated by centrifugation on a layer of Ficoll Paque (GE Healthcare, UK). […] Following incubation, the cells were stained with either anti-human CD8 or CD4 before being analysed on a flow cytometer. […]
as §3

[5] = tested on: CD4+ T-lymphocytes; assay: Human primary leucocyte proliferation: CD4+ T-lymphocytes; assay type: cell-based; conditions: 3 μM, 5 days
Description: as §2, with “standard. Counting beads are a calibrated suspension of microbeads which are added to a known volume of sample so the sample volume per bead is known.” for “standard.”
as §4, §3

[6] = Maximum Tolerated Dose, Han Wistar rats; conditions: rat, in vivo, oral
Description: The acute safety of the compounds was assessed in rats in order to enable determination of the maximum tolerated dose (MTD), an indication of a compound's safety in animals. The higher the MTD, the greater is the potential safety of the compound being tested.
At the completion of the study, the results were expressed as the maximum tolerated dose for each compound, this being the highest of each without unacceptable toxicity.
The maximum dose without unacceptable side-effects was determined to be the MTD (expressed in mg/kg).

SMILES	Fold change in viability ([1]; no stimulation)	Fold change in viability ([1]; phytohaemagglutinin)	Fold change in proliferation ([2]; SAC/IL-2, 5 days)	Fold change in proliferation ([2]; no stimulation, 5 days)	Fold change in viability ([3]; no stimulation)	Fold change in viability ([3]; phytohaemagglutinin)	Fold change in proliferation ([4]; no stimulation)	Fold change in proliferation ([4]; phytohaemagglutinin)	Fold change in proliferation ([5]; no stimulation)	Fold change in proliferation ([5]; phytohaemagglutinin)	MTD ([6]; female Han Wistar rats, read-out: Maximum tolerated dose, Females)	MTD ([6]; male Han Wistar rats, read-out: Maximum tolerated dose, Males)
Cc1cc(S(=O)(=O)N[C@H]2CC[C@H](O)CC2)ccc1-c1ccc(F)cc1F [ABD735]	0.9	0.6	0.6	0.9	0.8	0.7	0.7	0.3	1	0.6	–	–
C[C@]1(O)CC[C@H](NS(=O)(=O)c2ccc(-c3ccc(Cl)cc3C#N)cc2)CC1 [HMC-C-01-A, 4′-Chloro-2′-cyano-N-((1r,4r)-4-hydroxy-4-methylcyclohexyl)biphenyl-4-sulfonamide]	–	–	–	–	–	–	–	–	–	–	> 500 mg/kg	> 500 mg/kg
